# Results taken from patent US10793614B2, “Antagonists of fish reproduction” (Yissum Research Development Company of the Hebrew …, priority 2014, dated 2020).
# Numbered stars: 1 amine (or outer) side, 2 acyl side, 3 side chain; on linkers, the order of the positions; unused ones are H or OH. Square brackets hold non-standard residues; d marks the D form. Suc = O=C(CCC(=O)[*:2])[*:1]; NMeV = CN[C@H](C(=O)O)C(C)C; βAla = NCCC(=O)O
# Experiments:
# [1] = test system: Tilapia tac3ra and tac3rb; experiment: CRE-luciferase reporter assay in COS-7 cells transfected with tilapia tac3 receptor; format: cell-based; settings: for effect of antagonist alone on luciferase activity (CRE-Luc): no ligand; for inhibition of luciferase activity, antagonist with native ligands: different concentrations added concomitantly with 0.1 nM NKB or NKF
# Excerpt: There are two signal transduction pathways, one is relayed trough cAMP/PKA (protein kinase A), and the second is trough Ca2+/PKC. The PKA pathway is activated by CRE (cAMP response element) and the PKC through SRE ([…] response element).
# In order to differentiate between the PKC and PKA signal transduction pathways, a sensitive luciferase (LUC) reporter gene assay was utilized by using the LUC transcriptionally regulated by a serum response element (SRE; Invitrogen) or cyclic AMP (cAMP) response element (CRE; Invitrogen). Tilapia tac3ra and tac3rb (GenBank accession numbers KF471674 and KF471675, respectively) or zebrafish tac3ra and tac3rb (JF317292, and JF317293, respectively) were cloned in pcDNA3.1 expression vector (Zeo-; Invitrogen) under the control of the CMV promoter.
# Transient transfection, cell procedures and stimulation protocols were generally according to (Levavi-Sivan et al., 2005, Mol Cell Endocrinol 236:17-30; Biran et al., 2008, ibid, Biran et al., 2012, ibid, Biran et al., 2014 ibid). Briefly, COS-7 cells were grown in DMEM supplemented with 10% FBS, 1% glutamine, 100 U/ml penicillin, and […] streptomycin (Biological Industries) under 5% CO2 until confluent. Cotransfection of either pc-tac3ra, pc-tac3rb (at 3 μg/plate), a reporter plasmid (at 2 μg/plate), and pCM.
# Transfection was carried out with FuGENE 6.0 reagent (Roche). The cells were serum starved for 36 h, stimulated with vehicle or various concentrations of either human NKB, tilapia NKB, tilapia NKF, zebrafish NKBa, NKBb or zebrafish NKF for 6 h, and then harvested and analyzed.
# Lysates prepared from the harvested cells were assayed for both luciferase activity and β-galactosidase activity, which was used as an internal standard to normalize the luciferase activity directed by the test plasmid, as described previously. Transfection experiments were performed in triplicate with three independently isolated sets.
# The concentrations of ligand used were from 1 nM to 1 μM. Treatments were performed in quadruplicate in three independent experiments.
# Each antagonist was added at different concentrations with a constant concentration of the wild-type NKB or NKF, at a dose of the ligand (10^−8M) that gave a response close to the ED50. The results were analyzed by Prism software, according to a non-linear regression one-site competition curve.
# The effect of NKB antagonists was tested in tilapia when each antagonist was added at different concentration concomitantly with NKB at 10^−8 M ([…]). Tilapia NKB increased the luciferase activity by 1.8 fold. The various antagonists reduced this response by approximately 60% (FIG. 1A). Similar results were obtained using the SRE response (FIG. 1B). […]
# Adult male Tilapia [2] = experiment: In vivo growth of injected adult male tilapia; settings: 500 μg/kg BW ip every 48 h for 2 weeks; day 21, seven days after end of treatment
# Protocol: Adult male tilapia (BW 60 g) were injected ip with saline and 25% DMSO, SB2222000, or NKB antagonists Ant-6 (500 μg/kg BW every 48 h for 2 weeks, n=25 fish per group). Fish were weighed every 7 days.
# [3] = test system: gonadotropin release in tilapia; experiment: In vivo gonadotropin (FSH, LH) release in sexually mature tilapia females; settings: 10, 100 or 500 μg/kg body weight injected; 1, 2, 4, 8 h; starting 1 hour after injection
# Protocol: SB222200 was further tested in vivo for its NKB antagonistic activity on gonadotropin release in tilapia. Sexually mature tilapia females (0.62±0.22%; n=10/treatment) were injected with different doses of the NKB non-peptide antagonist SB222200 (10, 100 or 500 μg/kg body weight) at time 0. 1, 2, 4 and 8 hours after the injection the fish were bled from their caudal vasculature. The levels of the gonadotropins FSH and LH were determined using specific ELISA according to Aizen et al., 2007 (Aizen et al., 2007, Gen Comp Endocrinol, vol. 153, pp 323-332).
# Adult male Tilapia [4] = experiment: In vivo ip injection of adult male tilapia: testis histology, plasma 11KT; settings: versus control; for increase of plasma 11KT levels: 500 μg/kg BW ip every 48 h, 0 to 12 days
# Protocol: Adult male Tilapia (BW 90 g) were injected ip with saline and 25% DMSO, SB2222000, or the NKB antagonists Ant-4 (500 μg/kg BW every 48 h for 2 weeks, […]). The fish were bled from the caudal blood vessels into heparinized syringes every 2 days after injection. At days 7 and 14 five fish from each group were bled, striped for sperm volume and gonads were taken for Histology. Plasma was analyzed for LH, FSH and 11KT. Blood samples were collected from the caudal vasculature and centrifuged (3000 rpm for 20 minutes at 4° C.) to obtain plasma samples, which were stored at −20° C. until assayed, ELISAs were performed according to (Aizen et al., 2007, Gen Comp Endocrinol, vol. 153, pp 323-332) for FSH and LH and according to Hurvitz et al., 2005 (Gen Comp Endocrinol 140:61-73) for 11KT 1-ketotestosterone, the main androgen in fish which is involved in spermatogenesis). FIG. 6 represents histological observations of gonads from testes of treated fish versus control fish. Fish testes are organized in cysts. […] From right to left: semen from fish injected with SB222200; semen from control fish; semen from fish injected with NKB-antagonist #4. 11KT is the main androgen in fish and is involved in spermatogenesis.
# Salmon tac3 receptor = experiment: CRE-Luc reporter assay in COS-7 cells transfected with salmon tac3r; format: cell-based; settings: with wild-type NKB at 10^-8 M
# Protocol: Similar to the in-vitro experiments performed in Example 2 in Tilapia and Zebrafish, the inhibition of NKB activity was tested in Salmon fish. Salmon tac3 receptor was cloned in pcDNA3.1 expression vector (Zeo-; Invitrogen) under the control of the CMV promoter. Transfection was carried out with FuGENE 6.0 reagent (Roche). The cells were serum starved for 36 h, stimulated with vehicle or various concentrations of either tilapia NKB for 6 h, and then harvested and analyzed. Lysates prepared from the harvested cells were assayed for both luciferase activity and β-galactosidase activity, which was used as an internal standard to normalize the luciferase activity directed by the test plasmid. Transfection experiments were performed in triplicate with three independently isolated sets. The concentrations of ligand used were from 1 nM to 1 μM. Treatments were performed in quadruplicate in three independent experiments. Each antagonist (NKB-ant 4 and NKB-ant 6) was added at different concentrations with a constant concentration of the wild-type NKB (10^−8M) that gave a response close to the ED50. The results were analyzed by Prism software, according to a non-linear regression one-site competition curve. When salmon tac3 was transfected, NKB increased the luciferase activity by 1.8 fold.
Compound,effect of antagonist alone on luciferase activity (CRE-Luc) [1],"inhibition of luciferase activity, antagonist with native ligands [1]",growth (body weight) (Adult male Tilapia [2]),FSH levels [3],LH levels [3],increase of plasma 11KT levels (Adult male Tilapia [4]),histological observations of testes (Adult male Tilapia [4]; 500 μg/kg BW ip every 48 h for 2 weeks),reduction of the NKB luciferase response by antagonist (Salmon tac3 receptor)
"CC(=O)N(C)C1(c2ccccc2)CCN(CCCC2(c3ccc(Cl)c(Cl)c3)CCCN(C(=O)c3ccccc3)C2)CC1 (stereo in doubt) [Osanetant (SR-142,801), (S)-(1)-N-{{3-[1-benzoyl-3-(3,4-dichlorophenyl)piperidin-3-yl]prop-1-yl}-4-phenylpiperidin-4-yl}-N-methyl acetamide]",no effect,typical inhibition curve,–,–,–,–,–,–
"CC[C@H](NC(=O)c1c(C)c(-c2ccccc2)nc2ccccc12)c1ccccc1 [SB222200, (S)-(2)-N-(a-ethylbenzyl)-3-methyl-2-phenylquinoline-4-carboxamide]",no effect,typical inhibition curve,significant growth,significant gradual decline,significant gradual decline,significantly inhibited,–,–
Succ-Asp-Ile-D-Trp-N(Me)Val-βAla-Leu-Met-NH2 (Suc-DI[dW][NMeV][βAla]LM-NH2; SMILES CC[C@H](C)[C@H](NC(=O)[C@H](CC(=O)O)NC(=O)CCC(=O)O)C(=O)N[C@H](Cc1c[nH]c2ccccc12)C(=O)N(C)[C@H](C(=O)NCCC(=O)N[C@@H](CC(C)C)C(=O)N[C@@H](CCSC)C(N)=O)C(C)C) [Ant-4],–,–,–,–,–,significantly inhibited,more partially empty cysts with mature spermatozoa,approximately 60%
